Data on 12 compounds can be found in patent publication US12070445B2, “System and assay for monitoring production/release of membrane-lytic toxins in bacteria and compounds for modulating same” (priority 2021, dated 2024).

Entries after “also recorded” stand apart in the source; their conditions may differ.

The test system of one experiment is agr. Description: agr YFP transcriptional reporter assay (S. aureus AH1677 with pDB59). It is filed as cell-based. The settings on record: Staphylococcus aureus. On the procedure:
Bacterial strains and culture. All bacteria were grown at 37° C. with 200 rpm shaking unless otherwise specified. S. aureus and P. aeruginosa were grown in BHI medium and LB medium, respectively. S. aureus AH1677 (with an agr-YFP reporter plasmid) and P. aeruginosa PAO1-PGSC (with a plasI-LVAgfp reporter plasmid) were used as QS transcriptional reporters and grown with 10 μg/mL chloramphenicol and 300 μg/mL carbenicillin, respectively. All other strains were grown without supplemental antibiotic. S. aureus RN6390b and P. aeruginosa PAO1-PGSC were used as WT strains in vesicle lysis experiments, while S. aureus RN9222 and P. aeruginosa PAO-JG35 were used as QS mutants. RN9222 was grown without antibiotic as it was not used as a reporter strain (i.e., it served only as QS mutant).
High-throughput screening and follow-up analysis protocols. Test compounds and positive control 1 were delivered in 2.5 nL aliquots of DMSO with an Echo 550 liquid handler (LabCyte Inc.) into black 384-well microtiter plates (Corning). All test compounds were tested at 10 μM; positive control 1 was tested at 250 nM. DMSO was used as a negative control. Overnight cultures (2 mL) of WT S. aureus (RN6390b) were grown at 37° C. with shaking at 200 rpm. These cultures were diluted 1:500 (v/v) in fresh BHI medium, at which point vesicle solutions were added to a final concentration of 1 mM phospholipid (as determined by ^31P NMR analyses). This vesicle-cell mixture was then added to the 384-well microtiter plates with a Multidrop 384 liquid-dispensing robot (Thermo Scientific) for a total volume of 50 μL per well. Plates were incubated statically for ˜24 hr at 37° C., at which point fluorescence (excitation 483, emission 530) and OD600 (absorbance at 600 nm) measurements were made using a CLARIOstarR Plus microtiter plate reader (BMG Labtech) running MARS data analysis software. Scatter plots were generated using the Collaborative Drug Discovery Vault informatics platform. The dose-response experiment using the vesicle lysis assay was performed in a 384-well plate in technical duplicate with compound concentrations of 0.1, 0.25, 0.5, 1, 2.5, 5, 10, and 20 μM. Dose-response curves were generated using variable slope (4 parameter) non-linear regression analysis for compound inhibition using GraphPad Prism software (v. 9). Analysis of the QS modulatory activity of the HTS hits and 6 (savirin) was performed using the S. aureus YFP transcriptional reporter strain. HTS hits were purchased directly from Life Chemicals, Inc. DMSO stock solutions (10 mM) of each compound were prepared and stored at −20° C. Serial dilutions (1:3) were prepared from the stock solutions in DMSO, and 2 μL aliquots of the resulting dilutions were added to the wells of black 96-well microtiter plates (Corning). Overnight cultures of the S. aureus reporter strain (2 mL) were grown at 37° C. with shaking at 200 rpm. Cultures were diluted 1:50 (v/v) into fresh BHI medium, and 198 μL of this diluted culture were added to each well containing compound, for a total volume of 200 μL per well. All plates contained a vehicle control consisting of 2 μL of DMSO and 198 μL of culture and a media control consisting of 200 μL BHI. Plates were incubated for ˜24 hours at 37° C. with shaking at 200 rpm. Fluorescence (excitation 510, emission 544) and OD600 measurements were acquired with a PerkinElmer EnVision microtiter plate reader running Envision Manager software. Background fluorescence from BHI control was subtracted from raw fluorescence reads, OD600 corrected, and finally normalized to vehicle control. Dose-response curves and IC50 values were generated using 3-parameter non-linear regression analysis for compound inhibition using GraphPad Prism software (v. 9). All compounds were tested in technical triplicate with at least 3 biological replicates.
As to `CCCc1cc(C(=O)O)nc2c(-c3ccccc3)c(C)nn12` [Compound 12], 2580 nM corresponded to half-maximal inhibition (IC50).
Same read-out and setting: the result for `Cc1nn2c(C3CC3)cc(C(=O)O)nc2c1-c1ccccc1` [Compound 13] reads 3350 nM.
`Cc1nn2c(C3CCC3)cc(C(=O)O)nc2c1-c1ccccc1` [Compound 14]: inhibition was half-maximal at 980 nM (IC50).
Same read-out and setting: then `CCc1cc(C(=O)O)nc2c(-c3ccccc3)c(C)nn12` [Compound 15], with 7670 nM.
Still for that read-out and setting: the result for `Cc1nn2c(C3CCCC3)cc(C(=O)O)nc2c1-c1ccccc1` [Compound 16] reads 840 nM; that for `Cc1nn2c(C(C)(C)C)cc(C(=O)O)nc2c1-c1ccccc1` [Compound 17], 480 nM.

A further experiment deals with WT S. aureus (RN6390b). Nature of the experiment: Microtiter plate (96-well) vesicle lysis assay with WT S. aureus. In kind it is cell-based. The settings on record: all compounds at 100 nM, 12 hr. As to the method: (§1) Compound handling and preparation. OdDHL and BHL (Hodgkinson et al., 2011), S. aureus AIP and peptide derivatives 1-5 (Tal-Gan et al., 2013, Tal-Gan et al., 2016, Vasquez and Blackwell, 2019), and compounds 7-9 (Welsh and Blackwell, 2016a, Boursier et al., 2018, Manson et al., 2020) were synthesized using previously described methods. PQS and compound 6 were purchased from Millipore Sigma and AK Scientific respectively. Compounds were stored dry at −20° C. until needed and then dissolved in DMSO. DMSO stock solutions were prepared at concentrations that varied with compound potency and apparent solubility. Final in-well compound concentrations for 96-well vesicle lysis assays, unless noted otherwise, were: 10 μM for AIP, OdDHL, and PQS; 1 mM for BHL; 100 nM for 1-4; 10 μM for 5; 20 μM for 6; 100 μM for 7 and 8; and 200 μM for 9.
(§2) Production of phospholipid vesicles with encapsulated calcein. Large unilamellar vesicles (LUVs) were produced by adapting a freeze-thaw and vesicle extrusion procedure (Mayer et al., 1986). Briefly, stock solutions of phospholipids (DOPC, DPPC, DPPE, or cholesterol) in chloroform were mixed to the desired lipid compositions (70 mol % DOPC/30 mol % cholesterol for S. aureus vesicles or 68 mol % DPPC, 30 mol % cholesterol, 2 mol % DPPE for P. aeruginosa vesicles), and the chloroform was removed using an N2 stream or rotary evaporation followed by drying for at least one hour under vacuum. Self-quenching solutions of calcein were prepared by combining calcein and PBS or a specially prepared calcein buffer (1 mM EDTA, 10 mM Trisbase, and 100 mM NaCl; pH 8) to a calcein concentration of […]. The resulting solutions were titrated with 10 M aqueous NaOH until all calcein was dissolved and the solution reached pH 7.4 or pH 8 for PBS and the calcein buffer, respectively. The resulting calcein solutions were added to the dried phospholipid films (PBS for S. aureus formulations and the calcein buffer for the P. aeruginosa formulations) for a final lipid concentration of 5 mg/mL. The resulting lipid solutions were vortexed vigorously and briefly sonicated in a bath sonicator to form a turbid vesicle suspension. The vesicle suspensions were then freeze-thawed five times by alternately immersing them into an iPrOH/dry ice bath and a warm water bath (˜60° C.). Vesicles prepared for continuous time-course experiments were passed at least 5 times through a 100 nm polycarbonate filter using a Mini-prep extruder. Vesicles prepared for the high-throughput screen were passed through the filter 3 times. The resulting vesicles were then separated from external, unloaded calcein using a hand-packed Sephadex-G50 size exclusion chromatography column. The concentration of phospholipid in the solution was quantified using ^31P NMR (per the above protocol), and the phospholipid concentration was adjusted to 2 mM for unsaturated lipid solutions and 1 mM for saturated lipid solutions in their respective buffers. The resulting vesicles were characterized by dynamic light scattering and found to have a hydrodynamic diameter of ˜150 nm (FIGS. 3A-3C), which agrees with previous reports describing vesicle production using a similar method (Lapinski et al., 2007).
Microtiter plate vesicle lysis assays. Portions of media (2 or 10 mL) were inoculated with individual bacterial colonies and allowed to shake overnight. From these overnight cultures, subcultures were prepared by diluting the cultures 1:50 (v/v) in fresh BHI for S. aureus or 1:100 (v/v) in fresh LB for P. aeruginosa. An aliquot of each subculture (178 μL) was added to 20 μL of vesicle suspension and 2 μL of compound solution (dissolved in DMSO at 100× working concentration) in a clear-bottomed, black 96-well microtiter plate (Corning 3904). For controls, DMSO (vehicle) or Triton X-100 (1% final concentration) was substituted for compound. […]
For the compound AIP III D4A amide [Compound 2], the “calcein leakage with agr inhibitors at equivalent concentration” value was “delayed response”.
For tr. AIP III D2A [Compound 3], the “calcein leakage with agr inhibitors at equivalent concentration” value is given as “completely prevent calcein leakage”.
On the same count and under the same terms, the result for tr. AIP III D2A amide [Compound 4] reads “delayed response”.

For another experiment, the system named is WT P. aeruginosa (PAO1-PGSC). Nature of the experiment: Microtiter plate (96-well) vesicle lysis assay with WT P. aeruginosa. In kind it is cell-based. The settings on record: 10 μM OdDHL and PQS, 1 mM BHL, 200 μM 9. On the procedure:
as §1, §2
Microtiter plate vesicle lysis assays. Portions of media (2 or 10 mL) were inoculated with individual bacterial colonies and allowed to shake overnight. […]
On to `CCCC(=O)N[C@H]1CCOC1=O` [BHL, N-butyryl-Lhomoserine lactone], for which the “effect on vesicle lysis / dye leakage (fluorescence over 12 hr)” value was “earlier onset of dye leakage; also recorded: facilitate vesicle lysis”.
Same read-out and setting: the result for `CCCCCCCCCC(=O)CC(=O)N[C@H]1CCOC1=O` [OdDHL, N-(3-oxo-dodecanoyl)-L-homoserine lactone] reads “no observable influence on levels of fluorescence; also recorded: no observable effect”; that for `CCCCCCCc1[nH]c2ccccc2c(=O)c1O` [PQS, Pseudomonas quinolone signal], “no observable influence on levels of fluorescence; also recorded: no observable effect”.
